Results on 32 compounds are retold here after patent publication US20200361871A1 (Enterprise Therapeutics Ltd., priority 2018, published 2020).

This assay deals with human TMEM16A (TMEM16Aabc variant) (Homo sapiens, UniProt Q5XXA6, DEL476-501, form not given). The assay is described as follows: Automated whole-cell patch clamp (Qpatch) TMEM16A potentiator assay in FRT cells stably expressing human TMEM16A. It counts as cell-based. The note with it: for % Potentiation @ 3.33 μM Avg: 3.33 μM solution of test compound, percentage increase of baseline TMEM16A current; for pEC50: calculated EC50, Qpatch TMEM16A current at +70 mV. The essentials: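 Potentiation was read as the rise in peak +70 mV current over baseline (%), from cumulative 5-min additions of compound. Recordings used whole-cell automated patch of FRT cells stably carrying human TMEM16Aabc, with pipette Ca2+ buffered to give ~20% maximal current. EC50 and efficacy came from concentration-response fits.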

Usually pEC50 stands for −log10 of the EC50, conventionally taken in molar units.

pEC50: −log10 of the molar value.

Chain of human TMEM16A (TMEM16Aabc variant) (Q5XXA6 with tags, fused parts or gaps DEL476-501): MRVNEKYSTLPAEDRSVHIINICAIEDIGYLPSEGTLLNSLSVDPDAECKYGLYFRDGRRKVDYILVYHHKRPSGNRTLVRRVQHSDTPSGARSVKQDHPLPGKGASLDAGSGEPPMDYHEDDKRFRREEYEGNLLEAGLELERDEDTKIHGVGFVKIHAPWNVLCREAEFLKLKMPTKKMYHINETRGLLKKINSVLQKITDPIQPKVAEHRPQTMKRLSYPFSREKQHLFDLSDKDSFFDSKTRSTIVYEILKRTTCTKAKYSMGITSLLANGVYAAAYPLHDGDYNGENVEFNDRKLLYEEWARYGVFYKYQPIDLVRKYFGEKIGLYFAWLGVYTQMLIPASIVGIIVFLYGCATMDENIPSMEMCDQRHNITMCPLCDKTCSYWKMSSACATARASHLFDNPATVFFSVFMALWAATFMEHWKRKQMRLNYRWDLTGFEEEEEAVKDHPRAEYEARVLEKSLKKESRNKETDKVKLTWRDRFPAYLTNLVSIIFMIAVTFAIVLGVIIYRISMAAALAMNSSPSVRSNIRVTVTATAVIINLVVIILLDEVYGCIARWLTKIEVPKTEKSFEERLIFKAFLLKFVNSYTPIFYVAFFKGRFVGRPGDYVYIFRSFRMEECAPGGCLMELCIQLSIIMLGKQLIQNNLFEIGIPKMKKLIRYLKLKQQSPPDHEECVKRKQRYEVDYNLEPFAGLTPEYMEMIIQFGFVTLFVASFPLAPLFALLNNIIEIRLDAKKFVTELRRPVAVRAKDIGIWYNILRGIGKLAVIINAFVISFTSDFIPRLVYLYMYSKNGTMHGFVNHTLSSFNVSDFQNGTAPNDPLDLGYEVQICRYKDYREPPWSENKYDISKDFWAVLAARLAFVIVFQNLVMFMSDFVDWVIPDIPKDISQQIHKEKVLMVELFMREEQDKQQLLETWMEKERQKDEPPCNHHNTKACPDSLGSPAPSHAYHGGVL

Regarding `O=C(Cc1cc(Cl)ccc1O)Nc1ccnc(C(=O)N[C@H]2CC[C@@H](O)CC2)c1` [Example 7.12, 4-[2-(5-Chloro-2-hydroxyphenyl)acetamido]-N-[(1s,4s)-4-hydroxycyclohexyl]pyridine-2-carboxamide], the “% Potentiation @ 3.33 μM Avg” value came to 101% and the negative logarithm of the EC50 (pEC50) was 5.68.
For `C#CC1(NC(=O)c2cc(NC(=O)Cc3ccccc3Cl)ccn2)CCOCC1` [Example 30.11, 4-[[2-(2-Chlorophenyl)acetyl]amino]-N-(4-ethynyltetrahydropyran-4-yl)pyridine-2-carboxamide], the “% Potentiation @ 3.33 μM Avg” value is given as 125% and the pEC50 was 6.66.
Take `COc1cc(C(F)(F)F)ccc1CC(=O)Nc1cccc(C(=O)NC(C)(C)C)c1` [Example 4.9, N-tert-Butyl-3-[[2-[2-methoxy-4-(trifluoromethyl)phenyl]acetyl]amino]benzamide]: the “% Potentiation @ 3.33 μM Avg” value is recorded as 60% and the negative logarithm of the EC50 (pEC50) was 5.33.
Regarding `O=C(Cc1cc(Cl)ccc1O)Nc1ccnc(C(=O)N[C@@]2(CO)CCOC2)c1` (single isomer, unassigned) [Example 35b, 4-[[2-(5-Chloro-2-hydroxy-phenyl)acetyl]amino]-N-[(3R)-3-(hydroxymethyl)tetrahydrofuran-3-yl]pyridine-2-carboxamide or 4-[[2-(5-chloro-2-hydroxy-phenyl)acetyl]amino]-N-[(3S)-3-(hydroxymethyl)tetrahydrofuran-3-yl]pyridine-2-carboxamide], the “% Potentiation @ 3.33 μM Avg” value is 190% and the negative logarithm of the EC50 (pEC50) is 6.51.
`CC(C)(C)NC(=O)c1cccc(NC(=O)Cc2n[nH]c3ccccc23)c1` [Example 4.1, N-tert-Butyl-3-[[2-(1H-indazol-3-yl)acetyl]amino]benzamide]: the “% Potentiation @ 3.33 μM Avg” value is recorded as 79% and the pEC50 was 5.66.
In the case of `CC1(NC(=O)c2cccc(NC(=O)Cc3cc(Cl)ccc3O)c2)CCOCC1` [Example 7.8, 3-[[2-(5-Chloro-2-hydroxy-phenyl)acetyl]amino]-N-(4-methyltetrahydropyran-4-yl)benzamide], the “% Potentiation @ 3.33 μM Avg” value is 231% and the pEC50 is 6.04.
`O=C(Cc1cc(Cl)ccc1O)Nc1cccc(C(=O)NC2CCOCC2)c1` [Example 7.4, 3-[[2-(5-Chloro-2-hydroxy-phenyl)acetyl]amino]-N-tetrahydropyran-4-yl-benzamide]: the “% Potentiation @ 3.33 μM Avg” value stood at 52% and the negative-log EC50 (pEC50) is 6.19.
With `CC(C)(C)NC(=O)c1nccc(NC(=O)Cc2cc(Cl)ccc2O)c1F` [Example 28.1, N-tert-Butyl-4-[[2-(5-chloro-2-hydroxy-phenyl)acetyl]amino]-3-fluoro-pyridine-2-carboxamide], the “% Potentiation @ 3.33 μM Avg” value was found to be 68%.
As to `CC(C)(C#N)NC(=O)c1cc(NC(=O)c2ccc3c(c2)OCC(=O)N3)ccn1` [Example 83.17, N-[2-[(1-Cyano-1-methyl-ethyl)carbamoyl]-4-pyridyl]-3-oxo-4H-1,4-benzoxazine-7-carboxamide], the “% Potentiation @ 3.33 μM Avg” value worked out at 8%.
For `CC(C)(C)NC(=O)c1cc(NC(=O)Cc2cc(Cl)ccc2O)c(Cl)cn1` [Example 55, N-tert-Butyl-5-chloro-4-[[2-(5-chloro-2-hydroxy-phenyl)acetyl]amino]pyridine-2-carboxamide], the “% Potentiation @ 3.33 μM Avg” value was determined as 114%.
With `CC(C)(C)NC(=O)c1cccc(NC(=O)Cc2ccccc2)c1` [Example 4.6, N-tert-Butyl-3-[(2-phenylacetyl)amino]benzamide], the “% Potentiation @ 3.33 μM Avg” value is on record as 53% and the negative logarithm of the EC50 (pEC50) is 5.41.
For `COc1ccc(CNC(=O)c2cc(NC(=O)Cc3cc(Cl)ccc3O)ccn2)nc1` [Example 35.12, 4-[[2-(5-Chloro-2-hydroxy-phenyl)acetyl]amino]-N-[(5-methoxy-2-pyridyl)methyl]pyridine-2-carboxamide] the same measures were 158% and 6.38.
On to `N#CC12CC(NC(=O)c3cc(NC(=O)Cc4ccccc4Cl)ccn3)(C1)C2` [Example 30.5, 4-[[2-(2-Chlorophenyl)acetyl]amino]-N-(1-cyano-3-bicyclo[1.1.1]pentanyl) pyridine-2-carboxamide], for which the “% Potentiation @ 3.33 μM Avg” value is 63%.
On the same count and under the same terms, next, `COc1cc(CCC(=O)Nc2ccnc(C(=O)NC(C)(C)C#N)c2)ccn1` [Example 83.13, N-(1-Cyano-1-methyl-ethyl)-4-[3-(2-methoxy-4-pyridyl)propanoylamino]pyridine-2-carboxamide]: -1%.
In the case of `CC1(NC(=O)c2cc(NC(=O)Cc3cc(Cl)c(F)cc3O)ccn2)CCC1` [Example 76, 4-[[2-(5-Chloro-4-fluoro-2-hydroxy-phenyl)acetyl]amino]-N-(1-methylcyclobutyl)pyridine-2-carboxamide], the “% Potentiation @ 3.33 μM Avg” value turned out to be 366% and the negative-log EC50 (pEC50) is 6.66.
For the compound `N#CC1(NC(=O)c2cc(NC(=O)Cc3cc(F)ccc3O)ccn2)CCOCC1` [Example 48.1, N-(4-Cyanotetrahydropyran-4-yl)-4-[[2-(5-fluoro-2-hydroxy-phenyl)acetyl]amino] pyridine-2-carboxamide], the “% Potentiation @ 3.33 μM Avg” value came to 185% and the negative logarithm of the EC50 (pEC50) is 6.38.
Regarding `C#CC(C)(C)NC(=O)c1cc(NC(=O)CC2CCC(F)(F)CC2)ccn1` [Example 5.34, 4-[[2-(4,4-Difluorocyclohexyl)acetyl]amino]-N-(1,1-dimethylprop-2-ynyl)pyridine-2-carboxamide], the “% Potentiation @ 3.33 μM Avg” value was 185% and the negative-log EC50 (pEC50) is 6.19.
Turning to `CCCC(C)(C)NC(=O)c1cccc(NC(=O)Cc2cc(Cl)ccc2O)c1` [Example 7.1, 3-[[2-(5-Chloro-2-hydroxy-phenyl)acetyl]amino]-N-(1,1-dimethylbutyl)benzamide], the “% Potentiation @ 3.33 μM Avg” value was 241% and the negative-log EC50 (pEC50) was 6.47.
As to `CCC(C)(C)NC(=O)c1cc(NC(=O)Cc2cc(Cl)ccc2O)ccn1` [Example 9.2, 4-[[2-(5-Chloro-2-hydroxy-phenyl)acetyl]amino]-N-(1,1-dimethylpropyl)pyridine-2-carboxamide], the “% Potentiation @ 3.33 μM Avg” value was 196% and the negative logarithm of the EC50 (pEC50) was 6.72.
Turning to `CC(C)(C)NC(=O)c1cc(NC(=O)Cc2cccs2)ccn1` [Example 5, N-tert-Butyl-4-[[2-[2-thienyl]acetyl]amino]pyridine-2-carboxamide], the “% Potentiation @ 3.33 μM Avg” value was determined as 78% and the pEC50 is 6.10.
In the same order, the values of `CC(C)(C)NC(=O)c1cccc(NC(=O)Cc2c[nH]c3ccccc23)c1` [Example 4.5, N-tert-Butyl-3-[[2-(1H-indol-3-yl)acetyl]amino]benzamide] are 138% and 6.15.
On to `CC(C)(C)NC(=O)c1cc(NC(=O)Cc2cc(Cl)ccc2O)ccc1F` [Example 17, N-tert-Butyl-5-[[2-(5-chloro-2-hydroxy-phenyl)acetyl]amino]-2-fluoro-benzamide], for which the “% Potentiation @ 3.33 μM Avg” value turned out to be 173% and the pEC50 was 5.83.
Consider `C#CC(C)(C)NC(=O)c1cc(NC(=O)Cc2cc(F)ccc2F)ccn1` [Example 77, 4-[[2-(2,5-Difluorophenyl)acetyl]amino]-N-(1,1-dimethylprop-2-ynyl)pyridine-2-carboxamide], for which the “% Potentiation @ 3.33 μM Avg” value turned out to be 139% and the pEC50 was 6.39.
For `CC(C)(C)c1ccc(CC(=O)Nc2ccnc(C(=O)N[C@H]3CCCC[C@@H]3O)c2)cc1O` [Example 93.1, 4-[2-(4-tert-butyl-3-hydroxyphenyl)acetamido]-N-[(1S,2S)-2-hydroxycyclohexyl]pyridine-2-carboxamide], the “% Potentiation @ 3.33 μM Avg” value is given as 207% and the pEC50 is 7.30.
As for `CC(C)(C)NC(=O)c1cc(NC(=O)Cc2c(Cl)cccc2Cl)ccn1` [Example 5.17, N-tert-Butyl-4-[[2-(2,6-dichlorophenyl)acetyl]amino]pyridine-2-carboxamide], the “% Potentiation @ 3.33 μM Avg” value was 94% and the pEC50 was 6.19.
Regarding `CC(C)(C)NC(=O)c1cc(NC(=O)Cc2cc(F)ccc2O)ccn1` [Example 20, N-tert-Butyl-4-[[2-(5-fluoro-2-hydroxy-phenyl)acetyl]amino]pyridine-2-carboxamide], the “% Potentiation @ 3.33 μM Avg” value was determined as 111% and the pEC50 was 6.66.
With `CC(C)(C)NC(=O)c1cc(NC(=O)C2CCc3cccc(O)c32)ccn1` (stereo not drawn) [Example 3.10b, N-tert-Butyl-4-[(7-hydroxyindane-1-carbonyl)amino]pyridine-2-carboxamide], the “% Potentiation @ 3.33 μM Avg” value is 159% and the pEC50 was 6.34.
For the compound `CC(C)(C)NC(=O)c1cccc(NC(=O)Cc2ccc(F)cc2O)c1` [Example 2.3, N-tert-Butyl-3-[[2-(4-fluoro-2-hydroxy-phenyl)acetyl]amino]benzamide], the “% Potentiation @ 3.33 μM Avg” value is 203% and the pEC50 is 6.23.
For the compound `C#CC(C)(C)NC(=O)c1cc(NC(=O)Cc2ccc(C(F)(F)F)cc2O)ccn1` [Example 78.1, N-(1,1-Dimethylprop-2-ynyl)-4-[[2-[2-hydroxy-4-(trifluoromethyl)phenyl]acetyl]amino]pyridine-2-carboxamide], the “% Potentiation @ 3.33 μM Avg” value amounted to 238% and the pEC50 is 7.30.
Turning to `CC(C)(C)NC(=O)c1cc(NC(=O)NCc2ccc(Cl)cc2)ccn1` [Example 64.8, N-tert-butyl-4-[(4-chlorophenyl)methylcarbamoylamino]pyridine-2-carboxamide], the “% Potentiation @ 3.33 μM Avg” value is reported as 97%.
In the case of `CC1(CC(=O)Nc2ccnc(C(=O)NC(C)(C)C#N)c2)CCCCC1` [Example 83.7, N-(1-Cyano-1-methyl-ethyl)-4-[[2-(1-methylcyclohexyl)acetyl]amino]pyridine-2-carboxamide], the “% Potentiation @ 3.33 μM Avg” value is 147%.
Consider `CC(C)(C)NC(=O)c1cc(NC(=O)Cc2cc(Cl)c(Br)cc2O)ccn1` [Example 3.4a, 4-[[2-(4-Bromo-5-chloro-2-hydroxy-phenyl)acetyl]amino]-N-tert-butyl-pyridine-2-carboxamide], for which the “% Potentiation @ 3.33 μM Avg” value stood at 206% and the pEC50 was 6.85.
